The structures appear in SMILES notation. pIC50, pKd: −log10 of the molar value. Like-named read-outs stand apart in the source and are kept apart here.

Assay [1] addresses T1, KRas G12D (Homo sapiens, UniProt P01116, G12D). Kind of assay: KRas G12D Binding Assay (TR-FRET displacement of labeled tracer). Also on record: corresponding to amino acids 1:169, produced at Array BioPharma Inc; biotin (biotinylated). The settings on record: TR-FRET displacement of Cy5 labelled tracer, Biotinylated GDP-loaded KRAS G12D (amino acids 1:169), 60 minute incubation at 22° C. The method, boiled down: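 Biotinylated GDP-loaded KRAS G12D (aa 1:169) was incubated with Cy5 tracer, Eu-streptavidin and compound (2% DMSO) in HEPES pH 7.5, MgCl2, Tween-20, DTT, 60 min at 22° C. TR-FRET ratio gave POC; IC50 from 4-parameter fit at 50 POC.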
Target sequence in this assay (P01116 1-169 isoform P01116-2 G12D): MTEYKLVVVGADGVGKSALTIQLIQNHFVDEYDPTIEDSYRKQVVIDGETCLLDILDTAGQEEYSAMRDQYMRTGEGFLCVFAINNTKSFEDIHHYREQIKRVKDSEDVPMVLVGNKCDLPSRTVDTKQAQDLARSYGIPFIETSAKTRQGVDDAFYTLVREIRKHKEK

The subject of assay [2] is KRas G12D-mediated Phosphorylation of ERK. Kind of assay: Inhibition of KRas G12D-mediated Phosphorylation of ERK in AGS cells. The class given is cell-based. The note with it: Homo sapiens. As for the experimental part:
AGS cells (ATCC CRL-1739) expressing G12D were grown in DMEM medium supplemented with 10% fetal bovine serum, 10 mM HEPES, and Penicillin/Streptomycin. Cells were plated in tissue culture treated 96 well plates at a density of 40,000 cells/well and allowed to attach for 12-14 hours. Diluted compounds were then added in a final concentration of 0.5% DMSO. After 3 hours, the medium was removed, 150 μl of 4.0% formaldehyde was added and the plates incubated at room temperature for 20 minutes. The plates were washed with PBS, and permeabilized with 150 μL of ice cold 100% methanol for 10 minutes. Non-specific antibody binding to the plates was blocked using 100 μL Licor blocking buffer (Li-Cor Biotechnology, Lincoln NE) for 1 hour at room temperature.
The amount of phospho-ERK was determined using an antibody specific for the phosphorylated form of ERK and compared to the amount of GAPDH. Primary antibodies used for the detection were added as follows: Phospho-ERK(Cell Signaling cs-9101) diluted 1:500 and GAPDH (Millipore MAB374) diluted 1:5000 in Licor block+0.05% Tween 20. The plates were incubated for 2 hours at room temperature. The plates were washed with PBS+0.05% Tween 20.
Secondary antibodies used to visualize primary antibodies were added as follows: Anti-rabbit-680 diluted 1:1000 and Anti-mouse-800 diluted 1:1000 both in Licor block+0.05% Tween20, and were incubated for 1 hour at room temperature. The plates were washed with PBS+0.05% Tween 20. A 100 μl aliquot of PBS was added to each well and the plates were read on a Li-Cor Odyssey CLX plate reader.
The phospho-ERK(Thr202/Tyr204 signal was normalized to the GAPDH signal for each well and percent of DMSO control values were calculated. IC50 values were generated using a 4-parameter fit of the dose response curve

Assay [3] has as its target T1, KRas G12D. Nature of the assay: KRas G12D Surface Plasmon Resonance (SPR) Binding Assay. Also on record: Avidin-tag (so in the source). The note with it: Biacore T200, Biotinylated Avidin-tagged KRAS protein on SA chip, 20 C, 1:1 binding model. As for the experimental part: This Example illustrates that exemplary compounds of the present invention bind to KRas G12D as measured by surface plasmon resonance (SPR). Briefly, 1 L of 1.05×HBS-Mg buffer (262.5 mM BioUltra Hepes, pH 7.5, 157.5 mM NaCl, 105 mM MgCl2, 0.525 mM TCEP, 0.0305% Brij-35) was prepared and filter sterilized using a 0.22 μm bottle top filter. Approximately 50 mL of 1.05×HBS-Mg buffer was removed and saved for future dilutions. A 50 mL aliquot of DMSO (Sigma Aldrich DMSO Lot. #SHBK2079) was added and continued to stir for 10 minutes, creating the final 1.0×HBS-Mg buffer (250 mM BioUltra Hepes pH 7.5, 150 mM NaCl, 100 mM MgCl2, 0.5 mM TCEP, 0.03% Brij-35). Biacore T200 instrument was primed using 1.0×HBS-Mg buffer before docking a GE Streptavidin (SA) chip and then primed two additional times prior to beginning the immobilization step. All immobilized protein mixtures were created using 3-5 mg/mL Biotinylated Avidin-tagged KRAS protein using the following immobilization settings: SA chip type, 1 flow cells per cycle, 720 second contact time, and 5 μL/min flow rate. Normalization of the detector was also performed during the immobilization step using the GE BiaNormalize solution. All compounds were diluted to 10 mM in 100% DMSO prior to being diluted 20× in 1.05× buffer. Another 10λ dilution was created using 1.0× buffer prior to performing a series of 3× dilutions to create a compound concentration curve using the following assay settings: 20 C analysis temperature, General Settings=10 Hz data collection rate and multi-detection; Assay Steps=all set to LMW kinetics; Cycle Types=LMW kinetics (60 s contact time, 120 s dissociation time, 100 μL/min flow rate, extra wash after injection with 50% DMSO, flow path 1,2,3,4); Flow path detection=2-1, 4-3). Data evaluation was performed using the Biacore T200 Evaluation software and data fit to 1:1 binding model.
Target sequence in this assay (P01116 1-188 isoform P01116-2 G12D): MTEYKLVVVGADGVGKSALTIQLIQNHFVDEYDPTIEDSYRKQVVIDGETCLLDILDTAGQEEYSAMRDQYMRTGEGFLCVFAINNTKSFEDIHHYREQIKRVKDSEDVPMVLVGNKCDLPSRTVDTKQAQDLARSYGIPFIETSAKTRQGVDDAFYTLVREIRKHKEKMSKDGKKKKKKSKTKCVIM

Where [4] appears, read: AGS cells expressing G12D, 3 hours, phospho-ERK signal normalized to GAPDH, read-out: IC50.

In the case of `C#Cc1cccc2cccc(-c3ncc4c(NCC5(N(C)C)CCC5)nc(OC[C@@]56CCCN5C[C@H](F)C6)nc4c3F)c12` [Example 20, N-((1-(dimethylamino)cyclobutyl)methyl)-7-(8-ethynylnaphthalen-1-yl)-8-fluoro-2-(((2R,7aS)-2-fluorotetrahydro-1H-pyrrolizin-7a(5H)-yl)methoxy)pyrido[4,3-d]pyrimidin-4-amine bis(2,2,2-trifluoroacetate)], the values for the pIC50 (at KRas G12D [1]; in assay [2] (setting [4])) were 7.66 and 5.60, respectively.

Regarding `Oc1cc(-c2ncc3c(NC4CNC4)nc(OCC45CCCN4CCC5)nc3c2F)c2ccccc2c1` [Example 18, 4-(4-(azetidin-3-ylamino)-8-fluoro-2-((tetrahydro-1H-pyrrolizin-7a(5H)-yl)methoxy)pyrido[4,3-d]pyrimidin-7-yl)naphthalen-2-ol], the pIC50 was 7.33 on KRas G12D [1] and below 4.78 in assay [2] (setting [4]).

On to `CCc1cccc2cccc(-c3ncc4c(NCC5(N(C)C)CCC5)nc(OC[C@@]56CCCN5C[C@H](F)C6)nc4c3F)c12` [Example 21, N-((1-(dimethylamino)cyclobutyl)methyl)-7-(8-ethylnaphthalen-1-yl)-8-fluoro-2-(((2R,7aS)-2-fluorotetrahydro-1H-pyrrolizin-7a(5H)-yl)methoxy)pyrido[4,3-d]pyrimidin-4-amine], for which the values for the pIC50 (on KRas G12D [1]; in assay [2] (setting [4])) were 7.23 and below 4.78, respectively.

With `CN[C@H]1C[C@@H](Nc2nc(OCC34CCCN3CCC4)nc3c(F)c(-c4cc(O)cc5ccccc45)ncc23)C1` [Example 17, 4-(8-fluoro-4-(((1s,3s)-3-(methylamino)cyclobutyl)amino)-2-((tetrahydro-1H-pyrrolizin-7a(5H)-yl)methoxy)pyrido[4,3-d]pyrimidin-7-yl)naphthalen-2-ol bis(2,2,2-trifluoroacetate)], the negative logarithm of the IC50 (pIC50) at KRas G12D [1] is 7.09; in assay [2] (setting [4]), below 4.78.

Regarding `CCc1c(F)ccc2cc(O)cc(-c3ncc4c(NCC5(N(C)C)CCC5)nc(OC[C@]56CCCN5[C@@H](COC(=O)N(C)C)CC6)nc4c3F)c12` [Example 46, ((3R,7aR)-7a-(((4-(((1-(dimethylamino)cyclobutyl)methyl)amino)-7-(8-ethyl-7-fluoro-3-hydroxynaphthalen-1-yl)-8-fluoropyrido[4,3-d]pyrimidin-2-yl)oxy)methyl)hexahydro-1H-pyrrolizin-3-yl)methyl dimethylcarbamate], the pIC50 was 9.15 on KRas G12D [1] and 7.41 in assay [2] (setting [4]).

Turning to `CN(C)C(=O)OC[C@H]1CC[C@@]2(COc3nc(NCC4(N(C)C)CCC4)c4cnc(-c5cccc6cccc(Cl)c56)c(F)c4n3)CCCN12` [Example 51, ((3R,7aR)-7a-(((7-(8-chloronaphthalen-1-yl)-4-(((1-(dimethylamino)cyclobutyl)methyl)amino)-8-fluoropyrido[4,3-d]pyrimidin-2-yl)oxy)methyl)hexahydro-1H-pyrrolizin-3-yl)methyl dimethylcarbamate], the values for the pIC50 (on KRas G12D [1]; in assay [2] (setting [4])) were 6.99 and below 4.78, respectively.

As to `NC1(CNc2nc(OC[C@@]34CCCN3C[C@H](F)C4)nc3c(F)c(-c4cc(O)cc5ccccc45)ncc23)CCC1` [Example 29, 4-(4-(((1-aminocyclobutyl)methyl)amino)-8-fluoro-2-(((2R,7aS)-2-fluorotetrahydro-1H-pyrrolizin-7a(5H)-yl)methoxy)pyrido[4,3-d]pyrimidin-7-yl)naphthalen-2-ol bis(2,2,2-trifluoroacetate)], the values for the pIC50 (at KRas G12D [1]; in assay [2] (setting [4])) were 7.20 and 5.81, respectively.

Take `C#Cc1cccc2cc(O)cc(-c3ncc4c(NCC5(N(C)C)CCC5)nc(OC[C@@]56CCCN5C[C@H](F)C6)nc4c3F)c12` [Example 52, 4-(4-(((1-(dimethylamino)cyclobutyl)methyl)amino)-8-fluoro-2-(((2R,7aS)-2-fluorotetrahydro-1H-pyrrolizin-7a(5H)-yl)methoxy)pyrido[4,3-d]pyrimidin-7-yl)-5-ethynylnaphthalen-2-ol]: the pIC50 on KRas G12D [1] was 9.22; in assay [2] (AGS, 3 h), 7.92. The pKd at KRas G12D [3] is 10.40.

Regarding `CCc1cccc2cc(O)cc(-c3ncc4c(NCC5(N(C)C)CCC5)nc(OC[C@]56CCCN5[C@@H](COC(=O)N(C)C)CC6)nc4c3F)c12` [Example 43, ((3R,7aR)-7a-(((4-(((1-(dimethylamino)cyclobutyl)methyl)amino)-7-(8-ethyl-3-hydroxynaphthalen-1-yl)-8-fluoropyrido[4,3-d]pyrimidin-2-yl)oxy)methyl)hexahydro-1H-pyrrolizin-3-yl)methyl dimethylcarbamate], the results for the pIC50 (on KRas G12D [1]; in assay [2] (setting [4])) were 8.96 and 7.27, respectively.

Turning to `CN(C)C1(CNc2nc(OC[C@@]34CCCN3C[C@H](F)C4)nc3c(F)c(-c4cc(O)cc5ccccc45)ncc23)CCCC1` [Example 7, 4-(4-(((1-(dimethylamino)cyclopentyl)methyl)amino)-8-fluoro-2-(((2R,7aS)-2-fluorotetrahydro-1H-pyrrolizin-7a(5H)-yl)methoxy)pyrido[4,3-d]pyrimidin-7-yl)naphthalen-2-ol bis(2,2,2-trifluoroacetate)], the pIC50 was 8.00 at KRas G12D [1] and 6.15 in assay [2] (setting [4]). The compound further gave a pKd at KRas G12D [3] of 7.91.

Take `CC1(CNc2nc(OC[C@@]34CCCN3C[C@H](F)C4)nc3c(F)c(-c4cc(O)cc5ccccc45)ncc23)CNC1` [Example 8, 4-(8-fluoro-2-(((2R,7aS)-2-fluorotetrahydro-1H-pyrrolizin-7a(5H)-yl)methoxy)-4-(((3-methylazetidin-3-yl)methyl)amino)pyrido[4,3-d]pyrimidin-7-yl)naphthalen-2-ol]: the pIC50 was 7.40 at KRas G12D [1] and below 4.78 in assay [2] (setting [4]). On KRas G12D [3], this compound had a pKd of 7.18.

Turning to `CN(C)C1(CNc2nc(OC[C@@]34CCCN3C[C@H](F)C4)nc3c(F)c(-c4cc(O)cc5ccccc45)ncc23)CCC1` [Example 1, 4-(4-(((1-(dimethylamino)cyclobutyl)methyl)amino)-8-fluoro-2-(((2R,7aS)-2-fluorotetrahydro-1H-pyrrolizin-7a(5H)-yl)methoxy)pyrido[4,3-d]pyrimidin-7-yl)naphthalen-2-ol], the pIC50 at KRas G12D [1] is 7.71; in assay [2] (AGS, 3 h) it was 6.16. The compound further showed a pKd on KRas G12D [3] of 7.83.

As for `C#Cc1c(F)ccc2cccc(-c3ncc4c(NCC5(N(C)C)CCC5)nc(OCC56CCCN5CCC6)nc4c3F)c12` [Example 56, N-((1-(dimethylamino)cyclobutyl)methyl)-7-(8-ethynyl-7-fluoronaphthalen-1-yl)-8-fluoro-2-((hexahydro-1H-pyrrolizin-7a-yl)methoxy)pyrido[4,3-d]pyrimidin-4-amine], the values for the pIC50 (at KRas G12D [1]; in assay [2] (setting [4])) were 8.59 and 6.46, respectively.

The values are drawn from US12655160B2, “KRAS G12D inhibitors” (Mirati Therapeutics, Inc., priority 2020, dated 2026).
